Source: patent publication US11464780B2, “Pyrazolopyrimidine derivative and use thereof” (Simcere Pharmaceutical Co. Ltd., priority 2018, dated 2022)

Molecular target: T1, TrkA (Homo sapiens, UniProt P04629)
T1 construct: purchased Reaction Biology Corp. (contract assay)
Assay: Kinase inhibitory activity (33P-ATP filter binding, Reaction Biology Corp.)
Assay type: biochemical
Settings: read-out: The half maximal inhibitory concentration IC50 on the kinases, TrkA
Protocol: The mixture was incubated at room temperature for 20 minutes. To the reaction mixture was added a certain concentration of ^33P-ATP to initiate the reaction, and then the mixture was incubated at room temperature for 120 minutes. The radioactivities of the reactants were determined by the method of filter binding. The final kinase activity was expressed as the ratio of the remaining kinase activity in the test sample to the kinase activity in the DMSO control group. The dose-effect curve was fitted by GraphPad software and the IC50 was calculated.

T1 sequence (P04629 33-796): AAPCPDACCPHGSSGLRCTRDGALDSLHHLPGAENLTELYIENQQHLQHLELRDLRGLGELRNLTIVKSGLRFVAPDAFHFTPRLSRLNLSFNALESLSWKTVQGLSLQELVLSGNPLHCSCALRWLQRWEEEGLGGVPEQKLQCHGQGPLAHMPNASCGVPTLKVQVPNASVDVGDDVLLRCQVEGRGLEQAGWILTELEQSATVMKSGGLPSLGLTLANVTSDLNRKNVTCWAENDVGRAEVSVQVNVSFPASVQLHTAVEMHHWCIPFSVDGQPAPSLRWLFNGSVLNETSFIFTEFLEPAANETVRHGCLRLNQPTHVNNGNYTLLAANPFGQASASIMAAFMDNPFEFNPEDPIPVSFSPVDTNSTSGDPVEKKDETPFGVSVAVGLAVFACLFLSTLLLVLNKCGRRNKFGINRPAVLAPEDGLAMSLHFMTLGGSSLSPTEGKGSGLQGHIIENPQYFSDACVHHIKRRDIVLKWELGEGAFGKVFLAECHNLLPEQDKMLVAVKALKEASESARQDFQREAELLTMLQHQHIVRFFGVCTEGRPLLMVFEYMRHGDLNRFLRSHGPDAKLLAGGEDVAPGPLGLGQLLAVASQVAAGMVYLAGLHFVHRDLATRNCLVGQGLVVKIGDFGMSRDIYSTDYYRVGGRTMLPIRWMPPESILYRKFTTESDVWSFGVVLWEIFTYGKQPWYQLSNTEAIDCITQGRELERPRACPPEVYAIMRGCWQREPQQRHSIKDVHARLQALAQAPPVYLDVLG

IC50 [nM]	SMILES
> 1000	O=C1N[C@@H]2CNC[C@@H]2Oc2ncc(F)cc2[C@@H]2CCON2c2ccn3ncc1c3n2 [WX012A]
143	O=C1N[C@@H]2CNC[C@@H]2Oc2ncc(F)cc2[C@H]2CCON2c2ccn3ncc1c3n2 [WX012B]
> 1000	O=C1N[C@@H]2CCNC[C@@H]2Oc2ncc(F)cc2[C@@H]2CCON2c2ccn3ncc1c3n2 [WX013A]
57.2	O=C1N[C@@H]2CCNC[C@@H]2Oc2ncc(F)cc2[C@H]2CCON2c2ccn3ncc1c3n2 [WX013B]
1230	CC(=O)N1CC[C@H]2NC(=O)c3cnn4ccc(nc34)N3OCC[C@H]3c3cc(F)cnc3O[C@H]2C1 [WX014A]
12.8	CC(=O)N1CC[C@H]2NC(=O)c3cnn4ccc(nc34)N3OCC[C@@H]3c3cc(F)cnc3O[C@H]2C1 [WX014B]
182	CCN1C[C@@H]2Oc3ncc(F)cc3[C@H]3CCON3c3ccn4ncc(c4n3)C(=O)N[C@@H]2C1 [WX015A]
> 1000	CCN1C[C@@H]2Oc3ncc(F)cc3[C@@H]3CCON3c3ccn4ncc(c4n3)C(=O)N[C@@H]2C1 [WX015B]
33	CCN1CC[C@H]2NC(=O)c3cnn4ccc(nc34)N3OCC[C@@H]3c3cc(F)cnc3O[C@H]2C1 [WX016A]
220	CCN1CC[C@H]2NC(=O)c3cnn4ccc(nc34)N3OCC[C@H]3c3cc(F)cnc3O[C@H]2C1 [WX016B]
> 1000	C[C@@H]1COc2ccc(F)cc2[C@@H]2CCON2c2ccn3ncc(c3n2)C(=O)N1 [WX017B]
> 1000	CC1(C)COc2ncc(F)cc2[C@H]2CCON2c2ccn3ncc(c3n2)C(=O)N1 [WX018]

Molecular target: T2, Ba/F3 LMNA-NTRK1-WT stably transfected cell line (Homo sapiens, UniProt P04629)
T2 construct: fused on or other part: P02545 (Prelamin-A/C)
Assay: Cell proliferation inhibition (CellTiter-Glo)
Assay type: cell-based
Settings: 72 hours, read-out: The half maximal inhibitory concentration IC50 against cells, Ba/F3 LMNA-NTRK1-WT
Protocol: Adenosine Tri-Phosphate (ATP) is an energy carrier shared by various life activities in nature, and is the smallest unit of energy storage and transfer. The CellTiter-Glo™ cell viability detection kit uses luciferase as the detection substance, and luciferase requires the participation of ATP during the process of luminescence. CellTiter-Glo™ reagent is added to cell culture medium, and the luminescent intensity is measured. The luminescent signal is directly proportional to the amount of ATP in the system, and ATP is positively related to the number of living cells. Therefore, by using the CellTiter-Glo kit to detect ATP content, cell proliferation can be detected. In this assay, the cell line is Ba/F3 LMNA-NTRK1-WT stably transfected cell line, with 5000 cells/well.
IC50 Determination Process:
1. Cell Culture and Inoculation
a) the cells in the logarithmic growth phase were harvested, and counted with a platelet counter. Trypan blue exclusion method was used to detect cell viability to ensure the cell viability was no less than 90%.
b) the cell concentration was adjusted; 90 μL of cell suspension was added respectively into a 96-well plate.
c) the cells in the 96-well plates was cultured under conditions of 37° C., 5% CO2 and 95% humidity overnight.
2. Drug Dilution and Administration
a) 10-fold drug solutions were prepared, the highest concentration was 10 μM, 9 concentrations, 3-fold diluted (refer to Appendix I). 10 μL of each drug solution was added to each well of the 96-well plate seeded with the cells in triplicate.
b) the cells in the 96-well plate added with the drug were cultured under conditions of 37° C., 5% CO2 and 95% humidity for 72 hours, and then CTG (cell proliferation) was performed.
a) CellTiter-Glo™ reagent was thawed, and the cell plate was equilibrated at room temperature for 30 minutes.
b) CellTiter-Glo™ reagent of a same volume was added to each well;
c) the cell plate was shaken on an orbital shaker for 5 minutes to lyse the cells.
d) the cell plate was placed at room temperature for 20 minutes to stabilize the luminescent signal.
e) the luminescent intensity was read.
GraphPad Prism 5.0 software was used to analyze the data, nonlinear S-curve regression was used to fit the data to obtain dose-effect curve, and IC50 value was calculated therefrom.

T2 sequence (P04629 whole entry, change not shown, the tested form may be a part): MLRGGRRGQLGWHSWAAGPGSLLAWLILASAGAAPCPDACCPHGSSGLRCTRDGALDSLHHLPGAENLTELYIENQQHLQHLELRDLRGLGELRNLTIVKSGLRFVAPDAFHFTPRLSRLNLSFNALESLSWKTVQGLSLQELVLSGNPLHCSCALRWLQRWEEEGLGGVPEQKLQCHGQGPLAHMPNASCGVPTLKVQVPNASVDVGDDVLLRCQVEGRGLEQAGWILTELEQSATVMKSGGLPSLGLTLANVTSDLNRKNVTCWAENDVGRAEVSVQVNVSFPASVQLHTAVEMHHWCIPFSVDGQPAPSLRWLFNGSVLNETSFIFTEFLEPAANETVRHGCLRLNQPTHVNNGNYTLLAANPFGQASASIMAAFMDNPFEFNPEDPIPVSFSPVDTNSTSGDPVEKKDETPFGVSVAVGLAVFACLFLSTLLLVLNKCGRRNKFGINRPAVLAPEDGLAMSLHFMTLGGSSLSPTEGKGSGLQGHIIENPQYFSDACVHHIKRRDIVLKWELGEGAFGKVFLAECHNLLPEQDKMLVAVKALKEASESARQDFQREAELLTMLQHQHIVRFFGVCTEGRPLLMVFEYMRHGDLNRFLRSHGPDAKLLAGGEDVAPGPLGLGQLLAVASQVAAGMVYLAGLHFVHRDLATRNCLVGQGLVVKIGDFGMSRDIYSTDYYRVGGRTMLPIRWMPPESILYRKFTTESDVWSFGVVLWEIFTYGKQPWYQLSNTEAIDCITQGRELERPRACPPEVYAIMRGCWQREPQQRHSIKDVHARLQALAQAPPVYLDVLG

GI50 [nM]	SMILES
259	O=C1N[C@@H]2CNC[C@@H]2Oc2ncc(F)cc2[C@H]2CCON2c2ccn3ncc1c3n2 [WX012B]
216	O=C1N[C@@H]2CCNC[C@@H]2Oc2ncc(F)cc2[C@H]2CCON2c2ccn3ncc1c3n2 [WX013B]
80.4	CC(=O)N1CC[C@H]2NC(=O)c3cnn4ccc(nc34)N3OCC[C@@H]3c3cc(F)cnc3O[C@H]2C1 [WX014B]
65.1	CCN1C[C@@H]2Oc3ncc(F)cc3[C@H]3CCON3c3ccn4ncc(c4n3)C(=O)N[C@@H]2C1 [WX015A]
65.8	CCN1CC[C@H]2NC(=O)c3cnn4ccc(nc34)N3OCC[C@@H]3c3cc(F)cnc3O[C@H]2C1 [WX016A]

System: not listed separately
Assay: In vivo cassette pharmacokinetic test in mice
Parameters: species or system male CD-1 mice
Settings: male, CD-1, mouse, in vivo, po, 3 mg/kg, 2 h
Protocol: The dose of the compounds: […] PO dose of 3 mg/kg, and administration volume of 3 mL/kg.

drug concentration in brain at 2 h Brain@2 h [nmol/kg]	SMILES
30	CN1CCN(c2ccc(C(=O)Nc3n[nH]c4ccc(Cc5cc(F)cc(F)c5)cc34)c(NC3CCOCC3)c2)CC1 [RXDX-101, Entrectinib, reference compound]

System: not listed separately
Assay: In vivo pharmacokinetic test in mice
Parameters: species or system male CD-1 mice
Settings: PO dose of 10 mL/kg
Protocol: Experimental object: male CD-1 mice aged 7-9 weeks were used as the experimental animals, the LC/MS/MS method was used to determine the drug concentrations in plasma at different time points after single intravenous (IV) and intragastric (PO) administration of the compounds, in vivo pharmacokinetic behaviors of the compounds of the present disclosure in mice were studied, and pharmacokinetic characteristics thereof were evaluated. Drug preparation: The compounds were prepared into clear solutions with 5% DMSO+10% solutol+85% water as solvent for administration in IV (intravenous) group and PO (intragastric). The dose of the compounds: IV dose of 3 mg/kg, and PO dose of […].

Area under the curve AUC0-last [µM·h]	Time of peak concentration Tmax [min]	SMILES
27.344	22.8	C[C@@H]1CCc2ncc(F)cc2[C@H]2CCCN2c2ccn3ncc(c3n2)C(=O)N1 [LOXO-195, reference compound]

Same assay, conditions: PO dose of 10 mL/kg, read-out: Peak concentration Cmax

Cmax [µM]	SMILES
12.7	C[C@@H]1CCc2ncc(F)cc2[C@H]2CCCN2c2ccn3ncc(c3n2)C(=O)N1 [LOXO-195, reference compound]

System: human lung cancer LU-01-0414 subcutaneous xenograft tumor
Assay: In vivo efficacy, subcutaneous xenograft tumor of human lung cancer LU-01-0414
Parameters: species or system BALB/c mouse
Settings: LU-01-0414 xenograft, 14th day, PO, 30 mg/kg QD
Protocol: Experimental object: evaluation of the in vivo efficacy of test drugs such as WX002A on subcutaneous xenograft tumor of human lung cancer LU-01-0414 in BALB/c mouse model.
Drug preparation: The compounds were all prepared into clear solutions with 5% DMSO+10% solutol+85% water as solvent for administration in the PO (intragastric) group.
Tumor measurement: the tumor diameters were measured with a vernier caliper twice a week. The calculation formula of tumor volume is: V=0.5×a×b^2, wherein a and b represent the long diameter and short diameter of the tumor, respectively. The anti-tumor efficacy of the compounds was evaluated by TGI (%). TGI (%) reflects tumor growth inhibition rate.
Statistical analysis: the statistical analysis was based on the relative tumor volume and tumor weight at the end of the experiment using SPSS software. One-way ANOVA was used to analyze the comparison between multiple groups. […] P<0.05 was considered to indicate significant difference.

SMILES	T/C [%]	TGI [%]
C[C@@H](Oc1cc(-c2cnn(C3CCNCC3)c2)cnc1N)c1c(Cl)ccc(F)c1Cl [Crizotinib, crizotinib, reference compound]	10.32	117.67

Same assay, conditions: LU-01-0414 xenograft, 14th day, PO, 50 mg/kg QD

SMILES	T/C [%]	TGI [%]
C[C@@H](Oc1cc(-c2cnn(C3CCNCC3)c2)cnc1N)c1c(Cl)ccc(F)c1Cl [Crizotinib, crizotinib, reference compound]	4.89	124.09
